The supplement of paper PMC8671470

test system: MOLM-13; assay: cell viability (% survival relative to DMSO control, bortezomib = 0%); higher = less cytotoxic; conditions: 10000 nM; 72 h
How it was run: (§1)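 Fifteen myeloid leukaemia cell lines were exposed to compounds at 1, 10, 100, 1000 or 10000 nM in 384-well plates for 72 h at 37 °C and 5% CO2. Viability was read by CellTiter-Glo luminescence and normalised, with vehicle as 100% and a 10 µM positive control as 0%. Values are percent survival averaged over duplicates.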

Point of comparison: `CCN(CC)C(=S)SSC(=S)N(CC)CC` [Disulfiram], cell viability 92.7%. Against it:
- O=C(/C=C/c1ccc(O)c(O)c1)OCCc1ccccc1 [Caffeic acid phenethyl ester] — lower, 50.8%
- CCCCCOC(=O)Nc1nc(=O)n([C@@H]2O[C@H](C)[C@@H](O)[C@H]2O)cc1F [Capecitabine] — lower, 70.8%
- Cc1ccc(-c2cc(C(F)(F)F)nn2-c2ccc(S(N)(=O)=O)cc2)cc1 [Celecoxib] — lower, 92.5%
- O=c1c(-c2ccc(O)cc2)coc2cc(O[C@@H]3O[C@H](CO)[C@@H](O)[C@H](O)[C@H]3O)ccc12 [Daidzin] — higher, 99.3%
- c1cc(-c2cnn3cc(-c4ccc(OCCN5CCCCC5)cc4)cnc23)ccn1 [Dorsomorphin] — higher, 97.8%
- C[C@H]1c2cccc(O)c2C(=O)C2C(=O)[C@]3(O)C(=O)C(C(N)=O)C(=O)[C@@H](N(C)C)[C@@H]3[C@@H](O)[C@@H]21 (some centres undefined) [Doxycycline] — lower, 74.5%

test system: HEL; assay: as above; conditions: 1 nM; 72 h
How it was run: as §1

Point of comparison: `c1cc(-c2cnn3cc(-c4ccc(OCCN5CCCCC5)cc4)cnc23)ccn1` [Dorsomorphin], cell viability 87.1%. Against it:
- Cc1c(Cl)cccc1S(=O)(=O)Nc1nc(CC(=O)N2CCN(C)CC2)cs1 [BVT-2733] — higher, 106%
- CCc1oc2ccccc2c1C(=O)c1cc(Br)c(O)c(Br)c1 [Benzbromarone] — higher, 92.3%
- CCOC(=O)c1sc(NC(=O)c2ccco2)c(SC#N)c1C [CBR-5884] — higher, 102%
- O=C(/C=C/c1ccc(O)c(O)c1)OCCc1ccccc1 [Caffeic acid phenethyl ester] — higher, 92.8%
- CCCCCOC(=O)Nc1nc(=O)n([C@@H]2O[C@H](C)[C@@H](O)[C@H]2O)cc1F [Capecitabine] — lower, 86.1%
- Cc1ccc(-c2cc(C(F)(F)F)nn2-c2ccc(S(N)(=O)=O)cc2)cc1 [Celecoxib] — higher, 96.1%
- O=c1c(-c2ccc(O)cc2)coc2cc(O[C@@H]3O[C@H](CO)[C@@H](O)[C@H](O)[C@H]3O)ccc12 [Daidzin] — higher, 93%
- CCN(CC)C(=S)SSC(=S)N(CC)CC [Disulfiram] — higher, 101%
- C[C@H]1c2cccc(O)c2C(=O)C2C(=O)[C@]3(O)C(=O)C(C(N)=O)C(=O)[C@@H](N(C)C)[C@@H]3[C@@H](O)[C@@H]21 (some centres undefined) [Doxycycline] — higher, 120%

same assay, conditions: 10 nM; 72 h

Point of comparison: `O=c1c(-c2ccc(O)cc2)coc2cc(O[C@@H]3O[C@H](CO)[C@@H](O)[C@H](O)[C@H]3O)ccc12` [Daidzin], cell viability 93.7%. Against it:
- Cc1c(Cl)cccc1S(=O)(=O)Nc1nc(CC(=O)N2CCN(C)CC2)cs1 [BVT-2733] — lower, 82.9%
- CCc1oc2ccccc2c1C(=O)c1cc(Br)c(O)c(Br)c1 [Benzbromarone] — higher, 101%
- CCOC(=O)c1sc(NC(=O)c2ccco2)c(SC#N)c1C [CBR-5884] — higher, 102%
- O=C(/C=C/c1ccc(O)c(O)c1)OCCc1ccccc1 [Caffeic acid phenethyl ester] — higher, 96.8%
- CCCCCOC(=O)Nc1nc(=O)n([C@@H]2O[C@H](C)[C@@H](O)[C@H]2O)cc1F [Capecitabine] — lower, 87%
- Cc1ccc(-c2cc(C(F)(F)F)nn2-c2ccc(S(N)(=O)=O)cc2)cc1 [Celecoxib] — higher, 104%
- CCN(CC)C(=S)SSC(=S)N(CC)CC [Disulfiram] — lower, 86.8%
- c1cc(-c2cnn3cc(-c4ccc(OCCN5CCCCC5)cc4)cnc23)ccn1 [Dorsomorphin] — higher, 105%
- C[C@H]1c2cccc(O)c2C(=O)C2C(=O)[C@]3(O)C(=O)C(C(N)=O)C(=O)[C@@H](N(C)C)[C@@H]3[C@@H](O)[C@@H]21 (some centres undefined) [Doxycycline] — higher, 107%

same assay, conditions: 100 nM; 72 h

Point of comparison: `CCN(CC)C(=S)SSC(=S)N(CC)CC` [Disulfiram], cell viability 96.6%. Against it:
- Cc1c(Cl)cccc1S(=O)(=O)Nc1nc(CC(=O)N2CCN(C)CC2)cs1 [BVT-2733] — lower, 96.3%
- CCc1oc2ccccc2c1C(=O)c1cc(Br)c(O)c(Br)c1 [Benzbromarone] — higher, 101%
- CCOC(=O)c1sc(NC(=O)c2ccco2)c(SC#N)c1C [CBR-5884] — higher, 98.2%
- O=C(/C=C/c1ccc(O)c(O)c1)OCCc1ccccc1 [Caffeic acid phenethyl ester] — lower, 84.1%
- CCCCCOC(=O)Nc1nc(=O)n([C@@H]2O[C@H](C)[C@@H](O)[C@H]2O)cc1F [Capecitabine] — higher, 106%
- Cc1ccc(-c2cc(C(F)(F)F)nn2-c2ccc(S(N)(=O)=O)cc2)cc1 [Celecoxib] — lower, 89.9%
- O=c1c(-c2ccc(O)cc2)coc2cc(O[C@@H]3O[C@H](CO)[C@@H](O)[C@H](O)[C@H]3O)ccc12 [Daidzin] — higher, 107%
- c1cc(-c2cnn3cc(-c4ccc(OCCN5CCCCC5)cc4)cnc23)ccn1 [Dorsomorphin] — higher, 99.4%
- C[C@H]1c2cccc(O)c2C(=O)C2C(=O)[C@]3(O)C(=O)C(C(N)=O)C(=O)[C@@H](N(C)C)[C@@H]3[C@@H](O)[C@@H]21 (some centres undefined) [Doxycycline] — lower, 90.5%

same assay, conditions: 1000 nM; 72 h

Point of comparison: `O=C(/C=C/c1ccc(O)c(O)c1)OCCc1ccccc1` [Caffeic acid phenethyl ester], cell viability 77.9%. Against it:
- Cc1c(Cl)cccc1S(=O)(=O)Nc1nc(CC(=O)N2CCN(C)CC2)cs1 [BVT-2733] — higher, 108%
- CCc1oc2ccccc2c1C(=O)c1cc(Br)c(O)c(Br)c1 [Benzbromarone] — higher, 89.8%
- CCOC(=O)c1sc(NC(=O)c2ccco2)c(SC#N)c1C [CBR-5884] — higher, 104%
- CCCCCOC(=O)Nc1nc(=O)n([C@@H]2O[C@H](C)[C@@H](O)[C@H]2O)cc1F [Capecitabine] — higher, 106%
- Cc1ccc(-c2cc(C(F)(F)F)nn2-c2ccc(S(N)(=O)=O)cc2)cc1 [Celecoxib] — higher, 99.5%
- O=c1c(-c2ccc(O)cc2)coc2cc(O[C@@H]3O[C@H](CO)[C@@H](O)[C@H](O)[C@H]3O)ccc12 [Daidzin] — higher, 105%
- CCN(CC)C(=S)SSC(=S)N(CC)CC [Disulfiram] — higher, 87.9%
- c1cc(-c2cnn3cc(-c4ccc(OCCN5CCCCC5)cc4)cnc23)ccn1 [Dorsomorphin] — higher, 103%
- C[C@H]1c2cccc(O)c2C(=O)C2C(=O)[C@]3(O)C(=O)C(C(N)=O)C(=O)[C@@H](N(C)C)[C@@H]3[C@@H](O)[C@@H]21 (some centres undefined) [Doxycycline] — higher, 108%

same assay, conditions: 10000 nM; 72 h

Point of comparison: `CCCCCOC(=O)Nc1nc(=O)n([C@@H]2O[C@H](C)[C@@H](O)[C@H]2O)cc1F` [Capecitabine], cell viability 87.6%. Against it:
- Cc1c(Cl)cccc1S(=O)(=O)Nc1nc(CC(=O)N2CCN(C)CC2)cs1 [BVT-2733] — higher, 101%
- CCc1oc2ccccc2c1C(=O)c1cc(Br)c(O)c(Br)c1 [Benzbromarone] — higher, 122%
- CCOC(=O)c1sc(NC(=O)c2ccco2)c(SC#N)c1C [CBR-5884] — lower, 86.5%
- O=C(/C=C/c1ccc(O)c(O)c1)OCCc1ccccc1 [Caffeic acid phenethyl ester] — lower, 24.8%
- Cc1ccc(-c2cc(C(F)(F)F)nn2-c2ccc(S(N)(=O)=O)cc2)cc1 [Celecoxib] — higher, 97.1%
- O=c1c(-c2ccc(O)cc2)coc2cc(O[C@@H]3O[C@H](CO)[C@@H](O)[C@H](O)[C@H]3O)ccc12 [Daidzin] — higher, 102%
- CCN(CC)C(=S)SSC(=S)N(CC)CC [Disulfiram] — lower, 68%
- c1cc(-c2cnn3cc(-c4ccc(OCCN5CCCCC5)cc4)cnc23)ccn1 [Dorsomorphin] — lower, 72.6%
- C[C@H]1c2cccc(O)c2C(=O)C2C(=O)[C@]3(O)C(=O)C(C(N)=O)C(=O)[C@@H](N(C)C)[C@@H]3[C@@H](O)[C@@H]21 (some centres undefined) [Doxycycline] — lower, 75.3%

test system: HL-60; assay: as above; conditions: 1 nM; 72 h
How it was run: as §1

Point of comparison: `CCc1oc2ccccc2c1C(=O)c1cc(Br)c(O)c(Br)c1` [Benzbromarone], cell viability 88.5%. Against it:
- Cc1c(Cl)cccc1S(=O)(=O)Nc1nc(CC(=O)N2CCN(C)CC2)cs1 [BVT-2733] — higher, 99.9%
